# Source: US20210106708A1, “THERMORESPONSIVE COMPOSITIONS AND METHODS FOR PREVENTING AND DISRUPTING BIOFILMS” (CASE WESTERN RESERVE UNIVERSITY, priority 2018, published 2021)
# “Also recorded” adds a separate entry of the source. Where a name gives a salt, the structure may show the parent alone.
# Columns and labels:
# S. aureus biofilms = assay: Biofilm dispersal assay (crystal violet stain); format: cell-based
# Description: S. aureus were cultured overnight in agar plates or in lysogeny broth (LB) with agitation (200 rpm) at 37° C. Biofilm formation was evaluated under static conditions using 12-well plates (Falcon, USA). Bacterial cultures made overnight were diluted to an OD595 of 0.1 and further diluted 100× (˜10^5 CFU/mL) in modified tryptic soy broth (3% NaCl, 0.5% glucose) and each well was filled with 2 mL of the diluted bacterial solution and incubated at 37° C. for 24 h. Biofilm dispersal activities were evaluated by removing the culture media from the biofilms after 24 h and replacing it with saline solution (0.9% NaCl) containing either individual or a combination of amino acids at the specified concentrations (pH 7.4), or the other antimicrobial agents used in the clinic (vancomycin, bacitracin, NeutroPhase, Hibiclens). After exposure to the different treatment methods, the plates were gently washed with phosphate buffered saline (PBS, 1×) thrice and then stained with 500 μL of 0.1% (w/v) crystal violet for 30 min. The wells were then washed with PBS and the crystal violet stain was solubilized with 30% acetic acid. The solution was diluted 20 times and biofilm biomass was estimated by measuring the crystal violet stained biofilm remnants, which absorbs at 595 nm.
# HeLa cells = assay: PrestoBlue cell viability assay; format: cell-based; details: 200 mM vancomycin; 2 and 24 h incubation; hydrochloride
# Description: HeLa cells were cultured in Dulbecco's Modified Eagle Medium supplemented with 10% fetal bovine serum and 1% penicillin/streptomycin at 37° C. in 5% CO2 in a humidified atmosphere. The cells were seeded to 100% confluence in clear 96-well tissue culture plates (Costar, Corning, N.Y., USA) for 24 h. The cells were then exposed to the different treatments in media and incubated for the specified time. After treatment, the cells were washed in sterile phosphate buffered saline and incubated in 100 μL/well of DMEM (10% FBS, 1% penicillin/streptomycin). Cell viability was evaluated using the PrestoBlue assay (Invitrogen, USA), following the manufacturer's instructions. Briefly, 10 μL of PrestoBlue assay reagent was directly added to each well and the plates were incubated at the cell culture incubator (37° C. and 5% CO2) for 2 h. The absorbance at 570 and 600 nm were then measured using a SpectraMax i3 microplate reader (Molecular Device Inc., Sunnyvale, Calif.). All assays were performed in triplicates.
compound,measurement,setting,value
"CN[C@H](CC(C)C)C(=O)N[C@H]1C(=O)N[C@@H](CC(N)=O)C(=O)N[C@H]2C(=O)N[C@H]3C(=O)N[C@H](C(=O)N[C@H](C(=O)O)c4cc(O)cc(O)c4-c4cc3ccc4O)[C@H](O)c3ccc(c(Cl)c3)Oc3cc2cc(c3O[C@@H]2O[C@H](CO)[C@@H](O)[C@H](O)[C@H]2O[C@H]2C[C@](C)(N)[C@H](O)[C@H](C)O2)Oc2ccc(cc2Cl)[C@H]1O [vancomycin, vancomycin hydrochloride]",biofilm disruption,"S. aureus biofilms; 200 mM vancomycin, 24 h incubation",promising results
same,biofilm disruption,"S. aureus biofilms; 2 to 256 ppm, 24 h, preformed biofilms",do not disrupt preformed biofilms
same,in vitro cytotoxicity,HeLa cells,extremely toxic; also recorded: extreme cell toxicity
